Measured values published in patent US11141406B2, “Pharmaceutical compounds” (REVIRAL LIMITED, priority 2017, dated 2021).

Experiments:
[1] = Liver microsomal stability, dog; type: in vitro ADME; conditions: pooled liver microsomes, pH 7.4, 3 μM compound, 0.5 mg/mL protein, read-out: Liver Microsomal Stability t1/2
Method: (§1) Microsomal incubation: Experimental Procedure Pooled liver microsomes are purchased from a reputable commercial supplier and stored at −80° C. prior to use. Microsomes (final protein concentration 0.5 mg/mL), 0.1 M phosphate buffer pH 7.4 and test compound (final substrate concentration 3 μM, final DMSO concentration 0.25%) are pre-incubated at 37° C. prior to the addition of NADPH (final concentration 1 mM) to initiate the reaction. The final incubation volume is […]. A control incubation is included for each compound tested where 0.1 M phosphate buffer pH 7.4 is added instead of NADPH (minus NADPH). Two control compounds are included with each species. All incubations are performed singularly for each test compound. Each compound is incubated for 0, 5, 15, 30 and 45 min. The control (minus NADPH) is incubated for 45 min only. The reactions are stopped by transferring 20 μL of incubate to 60 μL MeOH at the appropriate time points. The termination plates are centrifuged at 2,500 rpm for 20 min at 4° C. to precipitate the protein. Following protein precipitation, the sample supernatants are combined in cassettes of up to 4 compounds, internal standard is added and samples analysed by LC-MS/MS. From a plot of In peak area ratio (compound peak area/internal standard peak area) against time, the gradient of the line is determined. Subsequently, half-life and intrinsic clearance are calculated.

[2] = Liver microsomal stability, human; type: in vitro ADME; conditions: pooled liver microsomes, pH 7.4, 3 μM compound, 0.5 mg/mL protein, read-out: Liver Microsomal Stability t1/2
Method: as §1

MDR1 = experiment: in vitro; type: in vitro ADME; conditions: dog, MDCK-MDR1
Method: MDR1-MDCK Permeability: Experimental Procedure
MDR1-MDCK cells obtained from the NIH (Rockville, Md., USA) are used between passage numbers 6-30. Cells are seeded onto Millipore Multiscreen Transwell plates at 3.4×10^5 cells/cm^2. The cells are cultured in DMEM and media is changed on day 3. On day 4 the permeability study is performed. Cell culture and assay incubations are carried out at 37° C. in an atmosphere of 5% CO2 with a relative humidity of 95%. On the day of the assay, the monolayers are prepared by rinsing both basolateral and apical surfaces twice with Hanks Balanced Salt Solution (HBSS) at the desired pH warmed to 37° C. Cells are then incubated with HBSS at the desired pH in both apical and basolateral compartments for 40 min to stabilise physiological parameters.
The dosing solutions are prepared by diluting test compound with assay buffer to give a final test compound concentration of 10 μM (final DMSO concentration of 1% v/v). The fluorescent integrity marker lucifer yellow is also included in the dosing solution. Analytical standards are prepared from test compound DMSO dilutions and transferred to buffer, maintaining a 1% v DMSO concentration.
For assessment of A-B permeability, HBSS is removed from the apical compartment and replaced with test compound dosing solution. The apical compartment insert is then placed into a companion plate containing fresh buffer (containing 1% v/v DMSO). For assessment of B-A permeability, FIBSS is removed from the companion plate and replaced with test compound dosing solution. Fresh buffer (containing 1% v/v DMSO) is added to the apical compartment insert, which is then placed into the companion plate. At 60 min the apical compartment inserts and the companion plates are separated and apical and basolateral samples diluted for analysis. Test compound permeability is assessed in duplicate. Compounds of known permeability characteristics are run as controls on each assay plate.
Test and control compounds are quantified by LC-MS/MS cassette analysis using an 8-point calibration with appropriate dilution of the samples. The starting concentration (C0) is determined from the dosing solution and the experimental recovery calculated from C0 and both apical and basolateral compartment concentrations. The integrity of the monolayer throughout the experiment is checked by monitoring lucifer yellow permeation using fluorimetric analysis. Lucifer yellow permeation is high if monolayers have been damaged.

[3] = test system: RSV fusion (HEK293T cells transfected with pCDNA3.1_A2_F); experiment: RSV fusion assay; type: cell-based; conditions: human respiratory syncytial virus, HEK-293T, read-out: RSV Fusion Assay (n ≥ 2) IC50
Method: HEK293T ((ECACC 12022001) cells were cultured in T75 culture flasks in Dulbecco's medium (DMEM) containing 10% Foetal Bovine serum (FBS), 50 units per mL Penicillin and 50 μg/mL Streptomycin and warmed to 37° C. prior to use. The cells were passaged by first washing briefly with 5 mL Phosphate buffered saline (PBS), followed by addition of 2 mL of Trypsin Ethylenediaminetetraacetic acid (EDTA) to detach the cells. Once cells had detached from the flask, 8 mL media was then added to and the cells dispersed via pipetting against the bottom of the flask.
The cells were counted and diluted to 3×10^5 cells/mL in fresh media. Two T75 flasks were each seeded with 15.6 mL diluted cells, cells were also subcultured at a ratio of between 1:2 and 1:10, to continue the stock. The flasks were then incubated for 24 h at 37° C. and 5% CO2.
The plasmid DNA (for pFR-Luc and pcDNA3.1_Gal4/NFKB) to be transfected into the HEK 293T cells was first prepared in serum free media (Opti-MEM, Invitrogen), containing the transfection reagent FuGENE® 6 (Promega). Serum free media was placed in a 1.5 mL eppendorf tube then the FuGENE 6 was added into the media. The tube was vortexed for 1 s before being incubated at RT for 5 min. 7.79 ng of both pFR_luc and pCDNA3.1_A2_F plasmid DNA were added to tube 1 and 7.79 ng of pCDNA3.1_GAL4-NF-κB plasmid to tube 2. The tubes were vortexed for 1 second and then incubated at room temperature for 15 min. Each transfection mixture was then added into the media of one of the T75 flasks of 293T cells. Cells were cultured for 24 h at 37° C., 5% CO2 in a humidified incubator.
Compounds were diluted (in a polypropylene round-bottomed 96 well plate) 1:3 in a twelve point dilution curve to give top [final] of either 25 μM, 3 μM, 1 μM or 500 nM. A control compound was included in every assay at a top concentration of 3 μM. Transfected cells were counted and diluted to 4×10^5 cells/mL in fresh media. 50 μL of transfection population 1 were added to all wells of the 96 well flat bottom white opaque assay plates. 100 μL diluted compound (2 rows per compound), control compound (one row) and controls (DMSO (0% inhibition, four wells), 3 μM positive control (100% inhibition, four wells) and media (transfection population 1 only, four wells) were added to the appropriate wells. 50 μL of the diluted (4×10^5 cells/mL) population 2 cells when then added to all wells, except the four wells of transfection population 1 only where an extra 50 μL of this cells population was added.
The plates were then incubated for 24 h at 37° C. and 5% CO2. After this time, 100 μL was removed from all wells and 60 μL of ONE-Glo™ (Promega) reagent, pre-equilibrated to room temperature, was added. Plates were then incubated for 3 min at room temperature before luminescence was read, using the ONE-Glo protocol, on the GloMax Explorer System (Promega) multimode reader. Analysis was carried out in Dotmatics software. All raw data were background subtracted (subtraction of mean 3 μM positive control value), before IC50 calculation.

[4] = Liver microsomal stability, rat; type: in vitro ADME; conditions: pooled liver microsomes, pH 7.4, 3 μM compound, 0.5 mg/mL protein, read-out: Liver Microsomal Stability t1/2
Method: as §1

Question: Which results are given for `CS(=O)(=O)CCCn1c(CN2C(=O)C(F)(F)c3ccccc32)nc2cc(Cl)ccc21` [Compound 5, 1-{[5-Chloro-1-(3-methanesulfonylpropyl)-1H-1,3-benzodiazol-2-yl]methyl}-3,3-difluoro-2,3-dihydro-1H-indol-2-one]?
Answer: half-life at 3 μM [1]: 1.05 h; half-life at 3 μM [2]: 54.7 h; Papp A→B at 60 min, 10 μM (MDR1): 0.21 ×10⁻⁶ cm/s; Papp B→A at 60 min, 10 μM (MDR1): 14.5 ×10⁻⁶ cm/s; IC50 [3]: 3.9 nM; half-life at 3 μM [4]: 0.355 h

Question: With `CCS(=O)(=O)N1CCC(n2c(CN3C(=O)C(F)(F)c4ccccc43)nc3cc(Cl)ccc32)CC1` [Compound 9, 1-({5-Chloro-1-[1-(ethanesulfonyl)piperidin-4-yl]-1H-1,3-benzodiazol-2-yl}methyl)-3,3-difluoro-2,3-dihydro-1H-indol-2-one] as the compound, how does the half-life at 3 μM [1] read?
Answer: Its half-life at 3 μM is 1.97 h.

Question: What about the half-life at 3 μM [2] of the same compound?
Answer: Its half-life at 3 μM is 1.5 h.

Question: What about the Papp A→B at 60 min, 10 μM (MDR1) of the same compound?
Answer: The Papp A→B at 60 min, 10 μM was 10.4 ×10⁻⁶ cm/s.

Question: What about the Papp B→A at 60 min, 10 μM (MDR1) of the same compound?
Answer: Its Papp B→A at 60 min, 10 μM is 18.3 ×10⁻⁶ cm/s.

Question: And the IC50 [3]?
Answer: Its IC50 is 2.2 nM.

Question: What about the half-life at 3 μM [4] of the same compound?
Answer: Its half-life at 3 μM is 0.377 h.

Question: Which half-life at 3 μM [1] does the source give for `O=C1N(Cc2nc3cc(Cl)ccc3n2C2CCOCC2)c2ccccc2C1(F)F` [Compound 10, 1-{[5-Chloro-1-(oxan-4-yl)-1H-1,3-benzodiazol-2-yl]methyl}-3,3-difluoro-2,3-dihydro-1H-indol-2-one] here?
Answer: Its half-life at 3 μM is 0.207 h.

Question: And the half-life at 3 μM [2]?
Answer: Its half-life at 3 μM is 1.12 h.

Question: And the Papp A→B at 60 min, 10 μM (MDR1)?
Answer: Its Papp A→B at 60 min, 10 μM is 19.8 ×10⁻⁶ cm/s.

Question: What about the Papp B→A at 60 min, 10 μM (MDR1) of the same compound?
Answer: Its Papp B→A at 60 min, 10 μM is 34.4 ×10⁻⁶ cm/s.

Question: What about the IC50 [3] of the same compound?
Answer: Its IC50 is 17 nM.

Question: And the half-life at 3 μM [4]?
Answer: The half-life at 3 μM was 0.303 h.

Question: With `CC(C)CCn1c(CN2C(=O)C(F)(F)c3ccccc32)nc2cc(CN)ccc21` [Compound 13, 1-{[5-(Aminomethyl)-1-(3-methylbutyl)-1H-1,3-benzodiazol-2-yl]methyl}-3,3-difluoro-2,3-dihydro-1H-indol-2-one] as the compound, how does the half-life at 3 μM [1] read?
Answer: Its half-life at 3 μM is 154 h.

Question: And the half-life at 3 μM [2]?
Answer: Its half-life at 3 μM is 6.1 h.

Question: What about the Papp A→B at 60 min, 10 μM (MDR1) of the same compound?
Answer: Its Papp A→B at 60 min, 10 μM is 0.84 ×10⁻⁶ cm/s.

Question: What about the Papp B→A at 60 min, 10 μM (MDR1) of the same compound?
Answer: The Papp B→A at 60 min, 10 μM was 57.1 ×10⁻⁶ cm/s.

Question: And the IC50 [3]?
Answer: The IC50 was 2.6 nM.

Question: And the half-life at 3 μM [4]?
Answer: The half-life at 3 μM was 0.282 h.
